Measurements from patent US20220280561A1, “COPPER-ATSM FOR TREATING NEURODEGENERATIVE DISORDERS ASSOCITED WITH MITOCHONDRIAL DYSFUNCTION” (RESEARCH INSTITUTE AT NATIONWIDE CHILDREN'S HOSPITAL, priority 2019, published 2022).

Assays:
Assay type in all cases: cell-based, human
[1] = test system: ALS iAstrocytes co-cultured with GFP+ motor neurons; assay: co-culture of CuATSM-pretreated ALS iAstrocytes with GFP+ motor neurons
Protocol: Neuronal progenitors cells were cultured on fibronectin coated dishes in NPC media (DMEM/F12 media containing 1% N2 supplement (Life Technologies), 1% B27 and 20 ng/ml fibroblast growth factor-2) until confluent. Astrocytes were differentiated by seeding a small quantity of NPCs on another fibronectin coated dish in astrocyte inducing media (DMEM media containing 0.2% N2 and 10% FBS). Cells were treated with CuATSM daily, beginning day 2 of differentiation. Five days post differentiation, induced astrocytes were seeded either into a 96 well (10,000 cells/well), 384 well (2,500 cells/well), a 24 well seahorse plate (20,000 cells/well) or a 96 well seahorse plate (25,000 cells/well treated, 12,500 cells/well untreated).
Co-culture: Stem cells from HB9:GFP+ mouse embryos were cultured as described previously (Meyer 2014). […] Motor neurons with neurite outgrowth of greater than 50 um were counted as alive. […]
A previously established direct conversion co-culture system was utilized to assess the therapeutic potential of CuATSM in the treatment of ALS (Meyer et al., PNAS, 111 (2) 829-832(2014)). […] Three days following co-cultures motor neurons were imaged (FIG. 1B) and motor neuron survival was calculated (FIG. 1C). […]

SCN2A iAstrocytes = assay: Seahorse basal and ATP-linked respiration, SCN2A iAstrocytes; conditions: SCN2A iAstrocytes vs corresponding untreated controls; restored to healthy levels
Protocol: Astrocytes treated with and without CuATSM were seeded on a 96 well Seahorse plate for extracellular flux analysis. Basal oxygen consumption (FIG. 6A) was measured at three time points followed by ATP synthase inhibition using oligomycin. The difference between basal respiration and oligomycin addition was used to calculate ATP linked respiration (FIG. 6B). […] All experiments were run at least in duplicate. Statistical analysis comparing treated and untreated individual patient lines was performed using student T-test.
Mitochondrial function: Induced astrocytes were seeded on 24 well seahorse plates in quadruplicate or a 96 well seahorse plate in quintuplicate as summarized in FIG. 9C. Twenty-four hours later media was replaced with seahorse base media containing 10 Mm glucose and 2 Mm glutamine. Oligomycin (1 Um), FCCP (5 Um) and antimycin A (10 Um) were injected separately to evaluate oxygen consumption following inhibition of the ATPase synthase, mitochondrial uncoupling and total shutdown of the electron transport chain. Alternatively, iAstrocyte media was replaced with a mitochondrial buffer (220 Mm mannitol, 70 Mm sucrose, 10 Mm KH2PO4, 5 Mm Hepes, 1 Mm EGTA and 0.2% Fatty acid free BSA) to measure complex IV dependent oxygen consumption. […] Oxygen consumption was measured in both assays using the Seahorse XF and Seahorse XFe. […]

[2] = test system: SCN2A iAstrocytes co-cultured with mouse neurons; assay: co-culture of CuATSM-pretreated SCN2A iAstrocytes with mouse GFP neurons; conditions: 3 days in culture
Protocol: FIG. 8A) Schematic protocol of iNeuron reprogramming from patient fibroblasts. Fibroblast cells were seeded on 12-well plates and differentiated for 7 days into iNeurons. iNeurons were fixed and imaged/immunostained for Tuj1 neuronal marker. FIG. 8B) Representative images of fibroblasts (before) and iNeurons after reprogramming. FIG. 8C) Representative bright field images of iNeurons following seven days of differentiation (scale bar=50 μm). On day five of differentiation, cells were treated with 0.01% of CuATSM as well as on day seven. FIG. 8D) Quantification of neuron survival percentage after seven days of differentiation. Tuj1 positive cells from three to five different images per line were counted and data was normalized to the average count of healthy control. FIG. 8E) Schematic of drug screen co-culture assay. Astrocytes were treated during differentiation with CuATSM. […] 24 hours later mouse neurons were seeded on top of astrocyte monolayer and viability was determined following 3 days in culture. […]
The effect of CuATSM treatment on SCN2A iAstrocytes mediated neuron toxicity was investigated. […] Neuron survival was quantified following seven days of differentiation by counting cells with neurites two times the soma length. […] Twenty-four hours later, motor neurons were seeded on top of the astrocyte monolayer and viability was determined following 3 days in culture. […]

For `CN=C([S-])N/N=C(C)/C(C)=N/NC([S-])=NC.[Cu+2]` [CuATSM, diacetyl-bis(4-methylthiosemicarbazonato) copperII], the “motor neuron survival following co-culture” value ([1]; iAstrocytes treated daily during differentiation with 1 Um CuATSM, 3 days co-culture, all patient lines except ALS3 and ALS7) was “increased motor neuron survival”, the “motor neuron survival following co-culture, responder classification” value ([1]; patient lines ALS3 (sALS) and ALS7 (C9ORF72)) was “nonresponders” and the ATP-linked respiration (SCN2A iAstrocytes) was “reduced”. The basal respiration (SCN2A iAstrocytes) was “reduced”, the “neuron survival following co-culture” value ([2]; SCN2A-1 and SCN2A-3 iAstrocytes pretreated during differentiation) was “significantly increase neuron survival” and the “neuron survival following co-culture” value ([2]; SCN2A-2 iAstrocytes pretreated during differentiation) was “trend towards increased survival”.
